Values joined by “and” are separate entries in the source; they are usually repeats but may differ in a detail not shown here. Identical values can stand only once. Counter-ions that a name gives are not always drawn.
Columns and labels:
[1] = system: Pseudomonas aeruginosa PAO1; assay: Growth inhibition screening of planktonic cultures (OD550/600); format: cell-based; set-up: key: (+++) full inhibition; (++) partial inhibition; (+) growth retardation; -: (−) no effect; conditions: P. aeruginosa PAO1, 50 and 100 μM compound added at T1, OD550/600 followed 10 h, 37°C
Procedure, shortened: (§1)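 Early exponential-phase cultures (OD550/600 c. a. 0.15–0.2) were treated with DICAMs at 50 and 100 μM final, diluted from DMSO stocks into medium, and incubated 10 h at 37°C. Turbidity (OD550/600) was read every 20 min against untreated controls to track growth inhibition and lysis.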

[2] = RP-HPLC retention time used to determine hydrophobicity; format: physicochemical; conditions: analytical RP-HPLC, C18 Sunfire column (4.6 mm × 150 mm, 3.5 μm); A = 0.05% TFA in water, B = acetonitrile; 10% to 100% B in 20 min then isocratic 100% B 10 min; 217 and 254 nm; used as measure of hydrophobicity
Experimental: The purity of the lipopeptides was checked by analytical RP-HPLC on an Agilent Infinity instrument equipped with a Diode Array and a C18 Sunfire column (4.6 mm × 150 mm, 3.5 μm). As mobile phase A:B mixtures were used, where A = 0.05% TFA in water and B = acetonitrile. The samples were analyzed at 217 and 254 nm in a gradient from 10% of B to 100% of B in 20 min followed by isocratic 100% of B in 10 min.
Retention times were used to determine the hydrophobicity ([Neubauer et al., 2020]). HRMS (EI+) was carried out in an Agilent 6,520 Accurate-Mass Q-TOF LC/MS spectrometer using water/acetonitrile mixtures. Results can be found in Supplementary Section S3, S4.

S. pyogenes T = assay: Dose dependence of bacterial viability (CFU counting, Hill fit); format: cell-based, Streptococcus pyogenes; conditions: for EC50 / Δlogmax, S. pyogenes T / SC (stationary concentration, Δlog = 0), S. pyogenes T: 2 h treatment, Hill fit; for EC50 / Δlogmax, S. pyogenes T / Decrease of the number of viable bacteria in the inoculum within 2 h: BHI; for EC50 / Δlogmax, S. pyogenes T / Decrease of the number of viable bacteria in the inoculum within 2 h / SC (stationary concentration, Δlog = 0), S. pyogenes T: 37°C; for EC50: read-out: K 1/2 (concentration yielding half-variation in Δlogmax), S. pyogenes T (converted); for Δlogmax, S. pyogenes T: maximum variation in viability; for Decrease of the number of viable bacteria in the inoculum within 2 h: S. pyogenes T; for Reduction of bacterial viability at 3 × SC, S. pyogenes T: after 2 h of incubation at 3 × SC; for SC (stationary concentration, Δlog = 0), S. pyogenes T: BHI medium, added at T1, 10^7–10^8 CFU/mL, CFU vs untreated controls
Description: First, the substitution of the fatty amino chain of 18 carbon atoms of the reference compound DICAM 2 by either an OMe group (methylated tripeptide DICAM 5) or an amine with 12 carbon atoms (DICAM 9) abolished the activity against all three pathogens. However, the activity remained intact when the chain of the fatty amine of prototypes DICAMs 1 and 4 was two carbon atoms shorter (DICAM 10 and DICAM 12, respectively), based on S. pneumoniae and S. pyogenes results. […] Third, Glu and Ala were tolerated as C-terminal residues of the lipotripeptides. […] In addition, deletion of the C-terminal Glu (DICAM 13) eradicated the activity against S. pneumoniae and S. aureus. However, a delay and small inhibition of S. pyogenes ^T growth was still observed. Fourth, Glu (DICAMs 19 and 20) and Orn (DICAMs 21 and 22) were tolerated as N-terminal residues, with the impact of these modifications being pathogen-dependent. […] SAR studies continued by measuring the dose dependence of DICAM’s activity at T1 with all the compounds found to be active against S. pyogenes or S. aureus in the initial screening, and all but one compound in the case of S. pneumoniae. The OD values of bacterial cultures were monitored after DICAM addition, and the decrease in the number of viable bacteria was measured relative to controls (Figures 4–6; Supplementary Figure S1). As antibacterial efficacy may decline with the bacterium dose in the inoculum ([Belley et al., 2009]; [Udekwu et al., 2009]; [Luca et al., 2013]), the assays were performed using the bacterial concentrations necessary for the fluorescence experiments in Section 2.3 (10^7–10^8 CFU/mL). At these high bacterial densities, MICs were determined as the DICAM concentration at which bacteria neither grow nor are killed (the stationary concentration (SC)), following [Udekwu et al., 2009]. By fitting the logarithmic plot of cell viability decrease vs. the DICAM dose to a Hill function (see Section 5.2.3.1) we were able to determine the maximum variation in viability (Δlogmax = ∆log f - ∆log 0, where ∆log f and ∆log 0 are the upper and lower limits of Δlog) in the assay conditions, the SC concentration (Δlog = 0), the dose required for half-variation in Δlogmax (K 1/2), and the cooperativity of the antimicrobial effect (N H).
Susceptibility to DICAMs was first tested by growth-inhibition assays at 50 and 100 μM of compound. Briefly, working solutions at 5 mM or 10 mM DICAM in pure DMSO were prepared from DICAM stocks (40 mM in pure DMSO) and diluted with fresh culture medium to 5× the desired final concentration. Aliquots (50 µL) of these solutions were added to 200 µL of bacterium cultures grown to early exponential phase (OD550/600 c. a. 0.15–0.2 in sterile 96-well plates (Cultek, Spain). Incubation continued for 10 h at 37°C and turbidity (OD550/600) values were measured every 20 min to monitor growth and lysis, using a VersaMax microplate reader (Molecular Devices; United Kingdom). Next, the activity dependence on DICAM’s dose was examined by measuring the turbidity of treated and untreated cultures as a function of time. Also, the decay of bacterial viability (CFU/mL) at selected times of treatment was assessed by colony counting on LB-agar or TSA plates after overnight incubation at 37°C. By default, 10 μL of 10-fold serially diluted samples were plated, which set the lower detection limit at 10^2 CFU/mL (10^1 CFU/mL when 100 μL of the undiluted sample was seeded).
As antibacterial efficacy may decline with the bacterium dose in the inoculum ([Belley et al., 2009]; [Udekwu et al., 2009]; [Luca et al., 2013]), activity assays were performed using the bacterial concentrations required for the fluorescence experiments in Section 2.3 (10^7–10^8 CFU/mL). At such bacterial densities, MICs were determined as the DICAM concentration at which bacteria neither grow nor are killed under assay conditions (the stationary concentration (SC)), as indicated in Section 2.2. […]

Staphylococcus aureus T = assay: Growth inhibition screening of planktonic cultures (OD550/600); format: cell-based; set-up: key: (+++) full inhibition; (++) partial inhibition; (+) growth retardation; -: (−) no effect; conditions: S. aureus T, 50 and 100 μM compound added at T1, OD550/600 followed 10 h, 37°C
Procedure, shortened: as §1

Escherichia coli DH10B = assay: as above; format: cell-based; set-up: key: (+++) full inhibition; (++) partial inhibition; (+) growth retardation; -: (−) no effect; conditions: E. coli DH10B, 50 and 100 μM compound added at T1, OD550/600 followed 10 h, 37°C
Procedure, shortened: as §1

Row | Compound | Growth halt or lysis (50/100 μM), Pa [1] | Retention time [2] [min] | EC50 (S. pyogenes T) [µM] | Δlogmax, S. pyogenes T (S. pyogenes T) | Growth halt or lysis (50/100 μM), Sa T (Staphylococcus aureus T) | Growth halt or lysis (50/100 μM), Ec (Escherichia coli DH10B) | Decrease of the number of viable bacteria in the inoculum within 2 h (S. pyogenes T) | Reduction of bacterial viability at 3 × SC, S. pyogenes T (S. pyogenes T) | SC (stationary concentration, Δlog = 0), S. pyogenes T (S. pyogenes T)
1 | CCCCCCCCCCCCCCCCCCNC(=O)[C@H](CCC(=O)O)NC(=O)[C@H]1CCCN1C(=O)[C@H](CC(N)=O)NC(=O)OCc1ccccc1 [DICAM 1, Cbz-Asn- Pro -Glu-NH-C18H37] | - | 21.41 | 8.3 ± 0.9 | 2.5 ± 0.1 logarithmic units |  |  |  |  | 
2 | CCCCCCCCCCCCCCCCCCNC(=O)[C@H](CCC(=O)O)NC(=O)[C@H]1CCCN1C(=O)[C@@H](N)CC(N)=O [DICAM 2, Asn- Pro -Glu-NH-C18H37 ·HCl] | - | 12.14 | 14 ± 2 | 3.9 ± 0.4 logarithmic units | ++ | - | 99.9–99.99% | 94.5%–99.9 | 
3 | CCCCCCCCCCCCCCCCCCNC(=O)[C@H](CCC(=O)O)NC(=O)[C@H]1CCCN1C(=O)[C@H](C)NC(=O)OCc1ccccc1 [DICAM 3, Cbz-Ala- Pro -Glu-NH-C18H37] | - | 21.42 | 8.1 ± 0.4 | 5.4 ± 0.1 logarithmic units | - | - | 99.9–99.99% | 94.5%–99.9 | 3–5 µM and 3.0 ± 0.4 µM
4 | CCCCCCCCCCCCCCCCCCNC(=O)[C@H](CCC(=O)O)NC(=O)[C@H]1CCCN1C(=O)[C@H](C)N [DICAM 4, Ala- Pro -Glu-NH-C18H37 ·HCl] | - | 19.24 | 51 ± 10 | 6.8 ± 0.8 logarithmic units | ++ | - |  |  | 10 ± 4 µM
5 | CCCCCCCCCCCCCCCCNC(=O)[C@H](CCC(=O)O)NC(=O)[C@H]1CCCN1C(=O)[C@H](CC(N)=O)NC(=O)OCc1ccccc1 [DICAM 10, Cbz-Asn- Pro -Glu-NH-C16H33] | - | 18.23 | 6.8 ± 0.7 | 2.6 ± 0.1 logarithmic units |  |  |  |  | 
6 | CCCCCCCCCCCCCCCCCCNC(=O)[C@H](C)NC(=O)[C@H]1CCCN1C(=O)[C@H](C)N [DICAM 14, Ala- Pro -Ala-NH-C18H37 · HCl] | - | 19.50 | 41 ± 10 | 3.7 ± 0.8 logarithmic units | +++ | - |  |  | 22 ± 10 µM
7 | CCCCCCCCCCCCCCCCCCNC(=O)[C@H](CCC(=O)O)NC(=O)[C@H]1CCCN1C(=O)[C@H](CCC(=O)O)NC(=O)OCc1ccccc1 [DICAM 19, Cbz-Glu- Pro -Glu-NH-C18H37] | - | 21.22 | 7.1 ± 0.8 | 3.0 ± 0.2 logarithmic units | + | - |  | 94.5%–99.9 | 4−5 µM and 3.8 ± 0.9 µM
8 | CCCCCCCCCCCCCCCCCCNC(=O)[C@H](CCC(=O)O)NC(=O)[C@H]1CCCN1C(=O)[C@@H](N)CCC(=O)O [DICAM 20, Glu- Pro -Glu-NH-C18H37 · HCl] | - | 18.71 | 17 ± 4 | ∼3.0 logarithmic units | ++ | - |  |  | 8 ± 2 µM
9 | CCCCCCCCCCCCCCCCCCNC(=O)[C@H](CCC(=O)O)NC(=O)[C@H]1CCCN1C(=O)[C@@H](N)CCCN [DICAM 22, Orn- Pro -Glu-NH-C18H37 · HCl] | - | 16.91 |  |  | + | - |  |  | 
10 | CCCCCCCCCCCCCCCCCCNC(=O)[C@H](CCC(=O)O)NC(=O)[C@H]1CCCN1C(=O)[C@H](C)NC(C)=O [DICAM 24, Ac-Ala- Pro -Glu-NH-C18H37] |  | 21.23 | 7.2 ± 0.4 | 5.3 ± 0.1 logarithmic units | ++ | - | 99.9–99.99% | 94.5%–99.9 | 
11 | Ala - Pro -Glu-NH-C18H37 · HCl [DICAM 23] | - | 19.31 |  |  | ++ | - |  |  | 
